Laboratory results taken from ChEMBL document CHEMBL1124432, “(6R,6S)-5,8,10-trideaza-5,6,7,8-tetrahydrofolate and 6(R,6S)-5,8,10-trideaza-5,6,7,8-tetrahydropteroyl-L-ornithine as potential antifolates and antitumor agents” (J Med Chem, 1989).

How the values were obtained:
[1] = target: T1, Folylpolyglutamate synthase, mitochondrial (Mus musculus) (UniProt P48760); assay: (§1) The apparent Km of compound as a substrate for partially purified mouse liver Folyl-polyglutamate synthase
T1 sequence (whole entry): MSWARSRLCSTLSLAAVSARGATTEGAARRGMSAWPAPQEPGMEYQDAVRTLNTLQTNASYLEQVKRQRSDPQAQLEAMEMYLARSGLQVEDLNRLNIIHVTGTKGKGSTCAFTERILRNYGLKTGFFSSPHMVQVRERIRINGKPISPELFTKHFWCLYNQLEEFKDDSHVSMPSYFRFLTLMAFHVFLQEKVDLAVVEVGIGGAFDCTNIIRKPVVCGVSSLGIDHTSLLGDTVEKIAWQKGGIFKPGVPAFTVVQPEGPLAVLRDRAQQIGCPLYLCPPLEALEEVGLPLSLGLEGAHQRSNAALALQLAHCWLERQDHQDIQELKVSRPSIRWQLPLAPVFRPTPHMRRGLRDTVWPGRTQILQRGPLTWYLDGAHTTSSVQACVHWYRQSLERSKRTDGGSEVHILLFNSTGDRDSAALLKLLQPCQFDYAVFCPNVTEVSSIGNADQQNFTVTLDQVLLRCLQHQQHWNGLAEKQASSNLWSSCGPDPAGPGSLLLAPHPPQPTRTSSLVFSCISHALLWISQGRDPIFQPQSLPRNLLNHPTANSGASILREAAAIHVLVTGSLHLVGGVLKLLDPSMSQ

CCRF-CEM = assay: Inhibitory activity against the growth of CEM human leukoblast cells; value ranges from 20-60; type: functional, cell-based
L1210 = assay: Inhibitory activity against the growth of murine L1210 leukemia cells; value ranges from 20-60; type: functional, cell-based; conditions: Mus musculus
[2] = Inhibitory activity against the growth of SSC15 human squamous carcinoma cells; value ranges from 20-60; type: functional
[3] = substrate: Nc1nc(N)c2nc(CNc3ccc(C(=O)N[C@@H](CCC(=O)O)C(=O)O)cc3)cnc2n1; assay: as §1
[4] = substrate: Nc1nc(O)c2c(n1)CCC(CCc1ccc(C(=O)NC(CCC(=O)O)C(=O)O)cc1)C2; assay: as §1
[5] = substrate: Nc1nc(O)c2c(n1)NCC(CNc1ccc(C(=O)N[C@@H](CCC(=O)O)C(=O)O)cc1)N2; assay: as §1

**Q.** Which Kis [1] does the source give for `NCCCC(NC(=O)c1ccc(CCC2CCc3nc(N)nc(O)c3C2)cc1)C(=O)O` (configuration not stated) here?
**A.** The Kis was 10.1 µM.

**Q.** For `Nc1nc(O)c2cc(CCc3ccc(C(=O)N[C@@H](CCC(=O)O)C(=O)O)cc3)cnc2n1`, which IC50 (CCRF-CEM) is on record?
**A.** The IC50 was 60 nM.

**Q.** What about the IC50 (L1210) of the same molecule?
**A.** Its IC50 is 60 nM.

**Q.** What about the IC50 [2] of the same molecule?
**A.** Its IC50 is 60 nM.

B1: Folylpolyglutamate synthase, mitochondrial (Mus musculus), P48760 (protein)
chain: T1 sequence (whole entry)
**Q.** For B1, which Km [3] is on record?
**A.** The Km was 20 µM.

**Q.** And the Km [4]?
**A.** Its Km is 1.54 µM.

**Q.** What about the Km [5] of the same molecule?
**A.** The Km was 8 µM.
